Source: ChEMBL document CHEMBL3856224, “Novel series of tacrine-tianeptine hybrids: Synthesis, cholinesterase inhibitory activity, S100B secretion and a molecular modeling approach” (Eur J Med Chem, 2016)
Calls of active or inactive are those of the source. The rule behind the calls is not given here.

Key:
Acetylcholinesterase = biological target: T1, Acetylcholinesterase (Rattus norvegicus, UniProt P37136); parameters: species or system Wistar
T1 sequence (P37136 whole entry): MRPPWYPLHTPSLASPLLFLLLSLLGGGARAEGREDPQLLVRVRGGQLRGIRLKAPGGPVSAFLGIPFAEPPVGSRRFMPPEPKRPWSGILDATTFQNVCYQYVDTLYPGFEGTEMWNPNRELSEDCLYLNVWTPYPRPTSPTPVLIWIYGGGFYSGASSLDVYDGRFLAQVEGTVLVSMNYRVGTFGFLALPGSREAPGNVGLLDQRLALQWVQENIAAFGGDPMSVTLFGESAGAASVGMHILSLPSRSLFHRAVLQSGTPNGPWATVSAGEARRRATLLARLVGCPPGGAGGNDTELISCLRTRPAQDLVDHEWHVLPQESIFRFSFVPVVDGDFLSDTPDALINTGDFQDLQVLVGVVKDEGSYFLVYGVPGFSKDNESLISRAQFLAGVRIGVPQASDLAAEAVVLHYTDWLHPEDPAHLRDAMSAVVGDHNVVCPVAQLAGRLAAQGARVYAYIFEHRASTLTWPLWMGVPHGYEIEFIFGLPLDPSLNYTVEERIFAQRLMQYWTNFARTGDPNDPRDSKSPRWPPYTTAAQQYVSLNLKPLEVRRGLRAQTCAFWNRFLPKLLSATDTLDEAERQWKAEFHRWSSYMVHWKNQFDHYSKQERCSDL
Description: Inhibition of Wistar rat brain AChE using acetylthiochloline iodide as substrate after 30 mins by Ellman's method

Cholinesterase = Cholinesterase (Homo sapiens, UniProt P06276)
Chain of Cholinesterase (P06276 whole entry): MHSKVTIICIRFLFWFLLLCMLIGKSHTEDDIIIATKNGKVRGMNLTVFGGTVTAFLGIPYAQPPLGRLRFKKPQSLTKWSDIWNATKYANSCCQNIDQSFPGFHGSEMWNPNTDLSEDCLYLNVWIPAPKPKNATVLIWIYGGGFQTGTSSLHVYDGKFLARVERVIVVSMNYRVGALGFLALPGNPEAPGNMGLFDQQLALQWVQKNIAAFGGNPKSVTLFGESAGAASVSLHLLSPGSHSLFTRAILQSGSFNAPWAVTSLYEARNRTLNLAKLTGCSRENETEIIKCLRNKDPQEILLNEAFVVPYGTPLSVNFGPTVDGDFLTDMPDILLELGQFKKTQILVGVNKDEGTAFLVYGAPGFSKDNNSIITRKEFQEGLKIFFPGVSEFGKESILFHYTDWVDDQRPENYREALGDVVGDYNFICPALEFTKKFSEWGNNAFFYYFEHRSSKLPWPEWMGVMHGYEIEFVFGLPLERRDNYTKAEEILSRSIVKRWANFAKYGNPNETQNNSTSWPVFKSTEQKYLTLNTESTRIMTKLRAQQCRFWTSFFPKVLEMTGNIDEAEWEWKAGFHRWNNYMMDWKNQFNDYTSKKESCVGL
Description: Inhibition of human plasma BuChE using S-butyrylthiocholine iodide as substrate after 30 mins by Ellman's method

Rattus norvegicus [1] = species: Rattus norvegicus; test: Toxicity in Wistar rat hippocampus assessed as LDH release at 0.1 uM relative to control; assay type: organism-based; conditions: in vivo
Rattus norvegicus [2] = species: Rattus norvegicus; test: Toxicity in Wistar rat hippocampus assessed as LDH release at 0.3 uM relative to control; assay type: organism-based; conditions: in vivo
Hippocampus = test: Reduction of S100B secretion in Wistar rat hippocampus at 0.03 to 0.3 uM after 1 hr by ELISA; assay type: functional
Rattus norvegicus [3] = species: Rattus norvegicus; test: Toxicity in Wistar rat hippocampus assessed as LDH release at 0.03 uM relative to control; assay type: organism-based; conditions: in vivo

SMILES | IC50 (Acetylcholinesterase) | IC50 (Cholinesterase) | Activity (Rattus norvegicus [1]) | Activity (Rattus norvegicus [2]) | Activity (Hippocampus) | Activity (Rattus norvegicus [3])
CN1c2ccccc2C(NCCCCCCC(=O)NCCCCCNc2c3c(nc4cc(Cl)ccc24)CCCC3)c2ccc(Cl)cc2S1(=O)=O (stereo unspecified) | 28.3 nM | 30.4 nM |  |  |  | 
c1ccc2c(NCCCCCCCNc3c4c(nc5ccccc35)CCCC4)c3c(nc2c1)CCCC3 |  | 38.3 nM |  |  |  | 
CN1c2ccccc2C(NCCCCCCC(=O)NCCCCNc2c3c(nc4cc(Cl)ccc24)CCCC3)c2ccc(Cl)cc2S1(=O)=O (stereo unspecified) | 36.5 nM | 48.1 nM |  |  |  | 
CN1c2ccccc2C(NCCCCCCC(=O)NCCCCCCNc2c3c(nc4cc(Cl)ccc24)CCCC3)c2ccc(Cl)cc2S1(=O)=O (stereo unspecified) | 39.1 nM | 32.1 nM |  |  |  | 
CN1c2ccccc2C(NCCCCCCC(=O)NCCCCCCCCNc2c3c(nc4ccccc24)CCCC3)c2ccc(Cl)cc2S1(=O)=O (stereo unspecified) | 87.5 nM | 4.12 nM |  |  |  | 
CN1c2ccccc2C(NCCCCCCC(=O)O)c2ccc(Cl)cc2S1(=O)=O (stereo unspecified) [TIANEPTINE] |  |  | 109.7% | 110.8% |  | 
CN1c2ccccc2C(NCCCCCCC(=O)NCCCCCCCNc2c3c(nc4ccccc24)CCCC3)c2ccc(Cl)cc2S1(=O)=O (stereo unspecified) | 65 nM | 6.4 nM |  |  |  | 
CN1c2ccccc2C(NCCCCCCC(=O)NCCCCCCCNc2c3c(nc4cc(Cl)ccc24)CCCC3)c2ccc(Cl)cc2S1(=O)=O (stereo unspecified) | 132 nM | 53.8 nM |  |  |  | 
CN1c2ccccc2C(NCCCCCCC(=O)NCCCCNc2c3c(nc4ccccc24)CCCC3)c2ccc(Cl)cc2S1(=O)=O (stereo unspecified) | 156 nM | 3.59 nM | 74.9% |  | Active | 72.7%
CN1c2ccccc2C(NCCCCCCC(=O)NCCNc2c3c(nc4ccccc24)CCCC3)c2ccc(Cl)cc2S1(=O)=O (stereo unspecified) | 82.2 nM | 22.6 nM |  |  |  | 
CN1c2ccccc2C(NCCCCCCC(=O)NCCCCCCCCNc2c3c(nc4cc(Cl)ccc24)CCCC3)c2ccc(Cl)cc2S1(=O)=O (stereo unspecified) | 452 nM | 456 nM |  |  |  | 
CN1c2ccccc2C(NCCCCCCC(=O)NCCNc2c3c(nc4cc(Cl)ccc24)CCCC3)c2ccc(Cl)cc2S1(=O)=O (stereo unspecified) | 8.01 nM | 47.3 nM |  |  |  | 
CN1c2ccccc2C(NCCCCCCC(=O)NCCCNc2c3c(nc4ccccc24)CCCC3)c2ccc(Cl)cc2S1(=O)=O (stereo unspecified) | 52.2 nM | 11.6 nM |  |  |  | 
CN1c2ccccc2C(NCCCCCCC(=O)NCCCCCCNc2c3c(nc4ccccc24)CCCC3)c2ccc(Cl)cc2S1(=O)=O (stereo unspecified) | 116 nM | 3.79 nM |  |  |  | 
CN1c2ccccc2C(NCCCCCCC(=O)NCCCNc2c3c(nc4cc(Cl)ccc24)CCCC3)c2ccc(Cl)cc2S1(=O)=O (stereo unspecified) | 6.79 nM | 52.4 nM |  |  |  | 
CN1c2ccccc2C(NCCCCCCC(=O)NCCCCCNc2c3c(nc4ccccc24)CCCC3)c2ccc(Cl)cc2S1(=O)=O (stereo unspecified) | 108 nM | 6.97 nM |  |  | Active | 67.4%
